≈ marks a conversion by molar mass, not a printed value. Where two headings read alike, the source gives them in different places.
Legend:
HBV = HBV DNA Quantification Assay; format: cell-based; conditions: Hepatitis B virus
Method: A HepG2 cell line overexpressing the HBV virus attachment receptor sodium-taurocholate cotransporting polypeptide (NTCP) was grown to confluency in DMEM growth medium, Dulbecco's Modified Eagle Medium without sodium pyruvate (Life Technologies, Rockville, Md.) supplemented with 10% FBS (Thermo Scientific, Waltham, Md.), 1% penicillin/streptomycin (Life Technologies, Rockville, Md.) and 2 mM L-glutamine (Life Technologies, Rockville, Md.) in T175 flasks. Cells were infected with HBV AD38 viral particles (Texcell, Frederick, USA) at 4000 genome equivalents per cell. After allowing viral infection to take place for 4 days, the infected cells were harvested from the flasks by trypsinization, washed twice with OptiMEM (Life Technologies, Rockville, Md.) and re-suspended in DMEM containing 2% FBS and 1% DMSO at a density of 0.25E6 cells/ml. Infected cells were seeded on 384 well collagen coated plates (Greiner, Austria) at a density of 20,000 cells/well containing serially diluted compounds of the present disclosure or DMSO (0.5%) in a final volume of 80 μl. The assay plates were incubated for a period of 5 days and the antiviral activity of the test compounds were assayed by detecting the presence of HBV DNA in the culture supernatant using the QuantiGene™ 2.0 nucleic acid quantification kit (Affymetrix, Santa Clara, Calif.).
The culture supernatant was harvested and treated with lysis buffer containing Proteinase K (Affymetrix, Santa Clara, Calif.). The supernatant was incubated with HBV viral DNA specific probes (Affymetrix, Santa Clara, Calif.) for 30 minutes at 55° C. This was followed by addition of 0.2M NaOH for 30 minutes at room temperature to denature the DNA, followed by addition of Neutralization buffer (Affymetrix, Santa Clara, Calif.). The resulting lysed and neutralized supernatant was then added to QuantiGene™ 2.0 384 well plates coated with capture oligonucleotides and incubated overnight at 55° C. The HBV specific probe set consists of Capture Extender oligonucleotides (CE's) and blocking probes. Following the overnight incubation, the wells were incubated for one hour sequentially with a Pre-Amplifier, Amplifier and Labeled probes conjugated to alkaline phosphatase with a wash step between incubations. After the final wash step, the alkaline phosphatase substrate (Luminol APS5) was added and the resulting luminescence signal was read in an EnVision Multilabel Plate Reader (PerkinElmer, Santa Clara, Calif.). The EC50 values were calculated from the fit of the dose-response curves to a four-parameter equation. All EC50 values represent geometric mean values of a minimum of four determinations.

Kinetic Solubility = format: physicochemical; conditions: kinetic from dmso stock, 0.2 to 100 μM, BD Gentest Solubility Scanner
Method: The 10 mM DMSO stock solution of the test compound is serially diluted into a 96-well “DMSO stock dilution plate”. Then Pipette 2 μL from the DMSO stock dilution plate into the “Sample plate” and dilute with 198 µL of the assay media to generate the final concentrations of the test compound ranging from 0.2 to 100 μM. The “Sample plate” is run on a BD Gentest Solubility Scanner.

[1] = 120 h, HepG2 cell line overexpressing NTCP infected with HBV AD38 viral particles, HBV DNA in culture supernatant after 5 days, geometric mean of a minimum of four determinations, read-out: EC50
[2] = aqueous buffer, pH = 7, read-out: Kinetic Solubility at pH = 7
[3] = simulated gastric fluid, pH = 1, read-out: Kinetic Solubility at pH = 1
[4] = assay media at pH 1 (composition not named), simulated gastric fluid, pH = 1, read-out: Kinetic Solubility at pH = 1
[5] = assay media at pH 7 (composition not named), aqueous buffer, pH = 7, read-out: Kinetic Solubility at pH = 7

Structure (SMILES)	EC50 (HBV; [1])	solubility kinetic (Kinetic Solubility; [2])	solubility kinetic (Kinetic Solubility; [3])	further results
O=C(NC1(c2c[nH]nn2)CC(F)(F)C1)C(=O)c1c(Cl)c(C(=O)Nc2ccc(F)c(F)c2)c2n1CCC2 [Example 54, 6-chloro-5-(2-((3,3-difluoro-1-(1H-1,2,3-triazol-4-yl)cyclobutyl)amino)-2-oxoacetyl)-N-(3,4-difluorophenyl)-2,3-dihydro-1H-pyrrolizine-7-carboxamide]	0.0016 µM			
Cc1c(C(=O)Nc2ccc(F)c(F)c2)c2n(c1C(=O)C(=O)NC1(c3c[nH]nn3)CC1)CCC2 [Example 40, 5-(2-((1-(1H-1,2,3-triazol-4-yl)cyclopropyl)amino)-2-oxoacetyl)-N-(3,4-difluorophenyl)-6-methyl-2,3-dihydro-1H-pyrrolizine-7-carboxamide]	0.0147 µM	2.9 µM (≈ 1.32 µg/mL)	4.9 µM (≈ 2.23 µg/mL)	
O=C(NC1(c2c[nH]nn2)CC1)C(=O)c1c(Cl)c(C(=O)Nc2ccc(F)c(F)c2)c2n1CCC2 [Example 53, 5-(2-((1-(1H-1,2,3-triazol-4-yl)cyclopropyl)amino)-2-oxoacetyl)-6-chloro-N-(3,4-difluorophenyl)-2,3-dihydro-1H-pyrrolizine-7-carboxamide]	0.0069 µM			
Cc1c(C(=O)Nc2ccc(F)c(C(F)F)c2)c2n(c1C(=O)C(=O)NC1(c3c[nH]nn3)CC1)CCC2 [Example 27, 5-(2-((1-(1H-1,2,3-triazol-4-yl)cyclopropyl)amino)-2-oxoacetyl)-N-(3-(difluoromethyl)-4-fluorophenyl)-6-methyl-2,3-dihydro-1H-pyrrolizine-7-carboxamide]	0.023 µM	2.7 µM (≈ 1.31 µg/mL)	8.4 µM (≈ 4.09 µg/mL)	
Cc1c(C(=O)Nc2ccc(F)c(F)c2)c2n(c1C(=O)C(=O)NC1(c3cnn[nH]3)CC(F)(F)C1)C[C@@H]1C[C@H]21 [Example 21]	0.0039 µM	57.6 µM (≈ 29.7 µg/mL)	64.7 µM (≈ 33.4 µg/mL)	
Cc1c(C(=O)Nc2ccc(F)c(Cl)c2)c2n(c1C(=O)C(=O)NC1(c3cnn[nH]3)CC(F)(F)C1)CCC2 [Example 16, N-(3-chloro-4-fluorophenyl)-5-(2-((3,3-difluoro-1-(1H-1,2,3-triazol-4-yl)cyclobutyl)amino)-2-oxoacetyl)-6-methyl-2,3-dihydro-1H-pyrrolizine-7-carboxamide]	0.0018 µM	2.8 µM (≈ 1.46 µg/mL)	16.5 µM (≈ 8.59 µg/mL)	
Cc1c(C(=O)Nc2ccc(F)c(F)c2)c2n(c1C(=O)C(=O)N[C@@](C)(C(N)=O)C(F)(F)F)CCC2 [Example 48, (S)-5-(2-((3-amino-1,1,1-trifluoro-2-methyl-3-oxopropan-2-yl)amino)-2-oxoacetyl)-N-(3,4-difluorophenyl)-6-methyl-2,3-dihydro-1H-pyrrolizine-7-carboxamide]	0.0639 µM			
Cc1c(C(=O)Nc2ccc(F)c(F)c2)c2n(c1C(=O)C(=O)NC1(c3cn(C)nn3)CC(F)(F)C1)CCC2 [Example 6, 5-(2-((3,3-difluoro-1-(1-methyl-1H-1,2,3-triazol-4-yl)cyclobutyl)amino)-2-oxoacetyl)-N-(3,4-difluorophenyl)-6-methyl-2,3-dihydro-1H-pyrrolizine-7-carboxamide]	0.014 µM	44.8 µM (≈ 23.2 µg/mL)	46.1 µM (≈ 23.9 µg/mL)	
CNC(=O)C1(NC(=O)C(=O)c2c(C)c(C(=O)Nc3ccc(F)cc3)c3n2CCC3)CC(F)(F)C1 [Example 45, 5-(2-((3,3-difluoro-1-(methylcarbamoyl)cyclobutyl)amino)-2-oxoacetyl)-N-(4-fluorophenyl)-6-methyl-2,3-dihydro-1H-pyrrolizine-7-carboxamide]	0.0559 µM	95.3 µM (≈ 45.4 µg/mL)	99.9 µM (≈ 47.6 µg/mL)	
Cc1c(C(=O)Nc2ccc(F)c(F)c2)c2n(c1C(=O)C(=O)NC1(c3c[nH]nn3)COC1)CCC2 [Example 36, 5-(2-((3-(1H-1,2,3-triazol-4-v)oxetan-3-yl)amino)-2-oxoacetyl)-N-(3,4-difluorophenyl)-6-methyl-2,3-dihydro-1H-pyrrolizine-7-carboxamide]				EC50 (HBV; HepG2, 120 h): 0.0214 µM; solubility kinetic (Kinetic Solubility; [4]): 63 µM (≈ 29.6 µg/mL); solubility kinetic (Kinetic Solubility; [5]): 59.9 µM (≈ 28.2 µg/mL)
CNC(=O)C1(NC(=O)C(=O)c2c(C)c(C(=O)Nc3ccc(F)c(F)c3)c3n2CCC3)CC(F)(F)C1 [Example 46]	0.0225 µM	88.5 µM (≈ 43.8 µg/mL)	84.4 µM (≈ 41.7 µg/mL)	
Cc1c(C(=O)Nc2ccc(F)c(C(F)F)c2)c2n(c1C(=O)C(=O)NC1(C(N)=O)CC(F)(F)C1)CCC2 [Example 32, 5-(2-((1-carbamoyl-3,3-difluorocyclobutyl)amino)-2-oxoacetyl)-N-(3-(difluoromethyl)-4-fluorophenyl)-6-methyl-2-dihydro-1H-pyrrolizine-7-carboxamide]	0.0242 µM	89.5 µM (≈ 45.9 µg/mL)	93.1 µM (≈ 47.7 µg/mL)	
Cc1c(C(=O)Nc2ccc(F)c(F)c2)c2n(c1C(=O)C(=O)NC1(c3cn(C)nn3)CC1)CCC2 [Example 11]				EC50 (HBV; HepG2, 120 h): 0.0712 µM; solubility kinetic (Kinetic Solubility; [4]): 48.9 µM (≈ 22.9 µg/mL); solubility kinetic (Kinetic Solubility; [5]): 56.3 µM (≈ 26.4 µg/mL)
Cc1c(C(=O)Nc2ccc(F)cc2)c2n(c1C(=O)C(=O)NC1(c3cnnn3C)CC(F)(F)C1)CCC2 [Example 7, 5-(2-((3,3-difluoro-1-(1-methyl-1H-1,2,3-triazol-5-yl)cyclobutyl)amino)-2-oxoacetyl)-N-(4-fluorophenyl)-6-methyl-2,3-dihydro-1H-pyrrolizine-7-carboxamide]	0.0179 µM			
COCc1cc(NC(=O)c2c(C)c(C(=O)C(=O)NC3(c4c[nH]nn4)CC(F)(F)C3)n3c2CCC3)ccc1F [Example 51]	0.045 µM			
O=C(NC1(c2c[nH]nn2)CC1)C(=O)c1c(Cl)c(C(=O)Nc2ccc(F)c(C(F)F)c2)c2n1CCC2 [Example 56]	0.0302 µM			
COCc1cc(NC(=O)c2c(C)c(C(=O)C(=O)NC3(c4nncs4)CC(F)(F)C3)n3c2CCC3)ccc1F [Example 50]	0.0334 µM			
Cc1c(C(=O)Nc2ccc(F)c(F)c2)c2n(c1C(=O)C(=O)N[C@](C)(C(N)=O)C(F)(F)F)CCC2 [Example 47, (R)-5-(2-((3-amino-1,1,1-trifluoro-2-methyl-3-oxopropan-2-yl)amino)-2-oxoacetyl)-N-(3,4-difluorophenyl)-6-methyl-2,3-dihydro-1H-pyrrolizine-7-carboxamide]	0.0541 µM			
Cc1c(C(=O)Nc2ccc(F)c(C(F)F)c2)c2n(c1C(=O)C(=O)NC1(c3nncs3)CC(F)(F)C1)CCC2 [Example 49, 5-(2-((3,3-difluoro-1-(1,3,4-thiadiazol-2-yl)cyclobutyl)amino)-2-oxoacetyl)-N-(3-(difluoromethyl)-4-fluorophenyl)-6-methyl-2,3-dihydro-1H-pyrrolizine-7-carboxamide]	0.0032 µM			
Cc1c(C(=O)Nc2ccc(F)c(F)c2)c2n(c1C(=O)C(=O)NC1(c3cn(C[Si](C)(C)C)nn3)CC1)CCC2 [Example 12]				EC50 (HBV; HepG2, 120 h): 0.0936 µM
O=C(NC1(c2c[nH]nn2)CC(F)(F)C1)C(=O)c1c(Cl)c(C(=O)Nc2ccc(F)c(C(F)F)c2)c2n1CCC2 [Example 55, 6-chloro-5-(2-((3,3-difluoro-1-(1H-1,2,3-triazol-4-yl)cyclobutyl)amino)-2-oxoacetyl)-N-(3-(difluoromethyl)-4-fluorophenyl)-2,3-dihydro-1H-pyrrolizine-7-carboxamide]	0.003 µM			
O=C(NC1(c2nncs2)CC1)C(=O)c1c(Cl)c(C(=O)Nc2ccc(F)c(F)c2)c2n1CCC2 [Example 52, 5-(2-((1-(1,3,4-thiadiazol-2-yl)cyclopropyl)amino)-2-oxoacetyl)-6-chloro-N-(3,4-difluorophenyl)-2,3-dihydro-1H-pyrrolizine-7-carboxamide]	0.011 µM			
